Measurements from PMC7002685, “Inhibition of vascular calcification by inositol phosphates derivatized with ethylene glycol oligomers” (Nature Communications, 2020).
Where “and” joins values, the source holds several entries; their conditions need not be identical. Equal entries are not always repeated. Where two headings read alike, the source gives them in different places.

Tests used:
[1] = 18F-NaF micro-PET/CT uptake on calcified human femoral arteries ex vivo; assay type: binding
Experimental: To investigate (OEG2)2-IP4 interaction with calcified tissues in a clinically relevant context, a competitive binding assay using ^18F-NaF was applied on severely calcified human femoral arteries and native aortic valves ex vivo. […] First, ^18F-NaF uptake was measured on tissue samples treated with vehicle (human serum) and thereafter, using the same tissue samples, treated with (OEG2)2-IP4 in serum.
Triplicate aliquots of CPP2s (20 µg Ca/mL) in 100 μL assay buffer (100 mM HBS, pH 7.4 (RT)) were incubated for 1 h at RT in the presence of increasing concentrations of compounds in 50 μL Milli-Q water and ^18F-NaF (1 nM) in 50 μL assay buffer, resulting in a total incubation volume of 200 μL (^18F-NaF was prepared using a FASTlab synthesizer (GE Healthcare, Little Chalfont, UK) and commercially available ^18F-NaF cassettes (GE Healthcare)). Maximum radiotracer binding was determined by incubating CPP2s with ^18F-NaF (1 nM) only. The reaction was terminated by rapid filtration through a SOLAμ™ SPE plate (HRP 2 mg/mL 96-well plate, 22 μm; Thermo Fisher Scientific). SPE individual column matrices were washed twice rapidly in assay buffer and radioactivity on the filters determined by an automatic gamma counter (Wizard2 Gamma Counter, Perkin Elmer, Waltham, MA, USA). […]

[2] = In vitro ionized human serum calcium; assay type: physicochemical
Experimental: One potential side effect of inositol phosphate-based drugs is toxicity due to chelation of ionized serum calcium. […] At 100 µM (OEG2)2-IP4, 96 ± 2% of control serum-ionized calcium was measured.
To assess reduction in ionized serum calcium, increasing concentrations of test compounds were incubated in human serum (Human AB serum, off-the-clot, HSER-ABPM; LuBioScience GmbH, Zurich, Switzerland) at RT and free ionized calcium levels were measured subsequently by the o-cresolphthalein method using the calcium colorimetric assay.

Phosphodiesterase PDE4 = assay: Off-target 154000; assay type: biochemical, Human; details: 10 µM
Experimental: (§1) The potential off-target activity of 10 µM (OEG2)2-IP4 was assessed against a panel of 87 enzymes, receptors, or ion channels that are used in standard safety pharmacology screens.
(§2) 3.2. Off-target screening assay
(§3) The experiments were conducted by a contract research organization (Eurofins Panlabs Discovery Services Taiwan, Ltd.) and details on the respective assays can be retrieved via the catalog number provided in Supplementary Table 11 from the company’s webpage
(§4) (https://www.eurofinsdiscoveryservices.com/). […]
(§5) At sacrifice the left tibia of animals of the rat model with dietary adenine/high-phosphate-induced uremia and VC was collected, fixed with 70% v/v EtOH and embedded in methyl methacrylate. The trabecular bone compartment is known to be the most metabolic active i.e. actively re-structured bone compartment in CKD. Therefore, histomorphometric and micro-computed tomography (µCT) analysis of bone was performed on the trabecular compartment. Tibial sections were Goldner-stained for histomorphometric analysis of the proximal metaphysis using the AxioVision Release 4.5 software, as […]
(§6) described previously5. […]

Adrenergic β1 = target: T1, Adrenergic β1 (Homo sapiens, UniProt P08588); assay: Off-target 204010; assay type: binding
T1 construct: purchased Eurofins Panlabs Discovery Services Taiwan, Ltd
Experimental: as §1, §2, §3, §4, §5, §6

Androgen (Testosterone) = assay: Off-target 206000; assay type: binding, Human; details: 10 µM
Experimental: as §1, §2
(§7) The experiments were conducted by a contract research organization (Eurofins Panlabs Discovery
(§8) Services Taiwan, Ltd.) and details on the respective assays can be retrieved via the catalog number
(§9) provided in Supplementary Table 11 from the company’s webpage
as §4

Bradykinin B2 = target: T2, Bradykinin B2 (Homo sapiens, UniProt P30411); assay: Off-target 212320; assay type: binding
T2 construct: purchased Eurofins Panlabs Discovery Services Taiwan, Ltd
Experimental: as §1, §2, §3, §4, §5, §6

[3] = system: Calcium Channel L-Type, Phenylalkylamine; assay: Off-target 215000; assay type: binding, Rat; details: 10 µM
Experimental: as §1, §2, §7, §8, §9, §4

Chemokine CXCR2 (IL-8RB) = target: T3, Chemokine CXCR2 (IL-8RB) (Homo sapiens, UniProt P25025); assay: Off-target 244500; assay type: binding
T3 construct: purchased Eurofins Panlabs Discovery Services Taiwan, Ltd
Experimental: as §1, §2, §3, §4, §5, §6

[4] = system: GABAA, Ro-15-1788, Hippocampus; assay: Off-target 226630; assay type: binding, Rat; details: 10 µM
Experimental: as §1, §2, §7, §8, §9, §4

Histamine H2 = target: T4, Histamine H2 (Homo sapiens, UniProt P25021); assay: Off-target 239710; assay type: binding
T4 construct: purchased Eurofins Panlabs Discovery Services Taiwan, Ltd
Experimental: as §1, §2, §3, §4, §5, §6

[5] = target: T5, Leukotriene, Cysteinyl CysLT1 (Homo sapiens, UniProt Q9Y271); assay: Off-target 250460; assay type: binding
T5 construct: purchased Eurofins Panlabs Discovery Services Taiwan, Ltd
Experimental: as §1, §2, §7, §8, §9, §4

Nicotinic Acetylcholine = assay: Off-target 258590; assay type: binding, Human; details: 10 µM
Experimental: as §1, §2, §3, §4, §5, §6

Opiate μ (OP3, MOP) = target: T6, Opiate μ (OP3, MOP) (Homo sapiens, UniProt P35372); assay: Off-target 260410; assay type: binding
T6 construct: purchased Eurofins Panlabs Discovery Services Taiwan, Ltd
Experimental: as §1, §2, §3, §4, §5, §6

[6] = target: T7, Platelet Activating Factor (PAF) (Homo sapiens, UniProt P25105); assay: Off-target 265010; assay type: binding
T7 construct: purchased Eurofins Panlabs Discovery Services Taiwan, Ltd
Experimental: as §1, §2, §7, §8, §9, §4

[7] = parameters: method as in PMID 30280390; details: after a 4-h i.v. infusion, cited from earlier work

T4 sequence (P25021 whole entry): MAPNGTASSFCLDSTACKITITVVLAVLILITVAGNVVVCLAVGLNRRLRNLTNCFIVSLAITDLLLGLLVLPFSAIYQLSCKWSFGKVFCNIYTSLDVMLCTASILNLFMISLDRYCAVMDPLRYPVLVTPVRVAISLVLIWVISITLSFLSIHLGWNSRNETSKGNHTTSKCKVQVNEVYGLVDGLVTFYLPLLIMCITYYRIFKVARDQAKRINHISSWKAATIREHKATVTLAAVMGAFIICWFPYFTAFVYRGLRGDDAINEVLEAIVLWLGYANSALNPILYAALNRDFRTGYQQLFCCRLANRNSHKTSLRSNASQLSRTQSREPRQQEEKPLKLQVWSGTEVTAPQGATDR
T1 sequence (P08588 whole entry): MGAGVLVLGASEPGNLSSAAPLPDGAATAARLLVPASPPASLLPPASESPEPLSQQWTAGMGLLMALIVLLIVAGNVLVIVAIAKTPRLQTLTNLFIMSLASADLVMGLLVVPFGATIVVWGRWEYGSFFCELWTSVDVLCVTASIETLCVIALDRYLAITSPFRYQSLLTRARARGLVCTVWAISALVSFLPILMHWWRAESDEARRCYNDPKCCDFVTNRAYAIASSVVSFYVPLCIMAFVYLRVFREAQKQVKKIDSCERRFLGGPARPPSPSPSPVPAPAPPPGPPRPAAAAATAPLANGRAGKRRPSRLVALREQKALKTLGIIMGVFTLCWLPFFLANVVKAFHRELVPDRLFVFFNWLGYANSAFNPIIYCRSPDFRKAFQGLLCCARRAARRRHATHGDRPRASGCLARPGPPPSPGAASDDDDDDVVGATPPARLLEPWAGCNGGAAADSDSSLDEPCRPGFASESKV
T5 sequence (Q9Y271 whole entry): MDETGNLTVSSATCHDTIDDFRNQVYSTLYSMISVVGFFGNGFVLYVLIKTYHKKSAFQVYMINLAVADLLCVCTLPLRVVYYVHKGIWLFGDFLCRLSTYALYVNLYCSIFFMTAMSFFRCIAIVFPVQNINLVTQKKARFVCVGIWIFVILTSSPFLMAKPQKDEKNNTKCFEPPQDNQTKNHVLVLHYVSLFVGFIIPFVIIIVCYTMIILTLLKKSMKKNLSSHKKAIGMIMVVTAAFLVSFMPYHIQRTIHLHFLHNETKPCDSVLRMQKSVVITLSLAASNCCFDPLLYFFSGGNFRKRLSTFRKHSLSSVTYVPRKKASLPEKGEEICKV
T3 sequence (P25025 whole entry): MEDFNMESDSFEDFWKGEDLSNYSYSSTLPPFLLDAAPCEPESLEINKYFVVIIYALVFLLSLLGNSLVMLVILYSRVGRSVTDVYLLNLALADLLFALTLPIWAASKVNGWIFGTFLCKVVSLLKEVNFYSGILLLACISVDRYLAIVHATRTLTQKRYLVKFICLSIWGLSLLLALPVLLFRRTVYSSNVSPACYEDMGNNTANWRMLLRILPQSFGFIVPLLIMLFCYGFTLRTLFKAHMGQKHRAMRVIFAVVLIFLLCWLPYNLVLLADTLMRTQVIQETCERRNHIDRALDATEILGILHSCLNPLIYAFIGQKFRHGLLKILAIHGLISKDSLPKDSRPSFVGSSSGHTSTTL
T7 sequence (P25105 whole entry): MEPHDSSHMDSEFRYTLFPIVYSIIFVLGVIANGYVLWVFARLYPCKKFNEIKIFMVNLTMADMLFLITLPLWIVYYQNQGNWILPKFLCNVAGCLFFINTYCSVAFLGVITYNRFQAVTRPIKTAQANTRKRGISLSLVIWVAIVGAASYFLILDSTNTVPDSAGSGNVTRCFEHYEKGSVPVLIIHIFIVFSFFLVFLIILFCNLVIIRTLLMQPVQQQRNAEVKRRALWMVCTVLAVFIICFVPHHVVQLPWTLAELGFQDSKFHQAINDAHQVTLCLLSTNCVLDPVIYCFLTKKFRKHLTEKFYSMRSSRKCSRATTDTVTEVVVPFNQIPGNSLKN
T6 sequence (P35372 whole entry): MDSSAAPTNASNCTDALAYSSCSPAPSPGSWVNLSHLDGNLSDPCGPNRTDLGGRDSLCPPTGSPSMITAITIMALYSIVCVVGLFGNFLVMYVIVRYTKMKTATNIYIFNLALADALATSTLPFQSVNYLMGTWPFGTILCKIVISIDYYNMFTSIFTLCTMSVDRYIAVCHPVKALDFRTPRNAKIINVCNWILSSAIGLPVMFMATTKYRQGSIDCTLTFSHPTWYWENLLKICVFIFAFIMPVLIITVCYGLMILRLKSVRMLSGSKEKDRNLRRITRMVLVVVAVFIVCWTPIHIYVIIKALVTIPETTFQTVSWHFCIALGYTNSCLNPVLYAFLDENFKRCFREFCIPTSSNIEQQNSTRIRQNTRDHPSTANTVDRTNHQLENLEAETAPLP
T2 sequence (P30411 whole entry): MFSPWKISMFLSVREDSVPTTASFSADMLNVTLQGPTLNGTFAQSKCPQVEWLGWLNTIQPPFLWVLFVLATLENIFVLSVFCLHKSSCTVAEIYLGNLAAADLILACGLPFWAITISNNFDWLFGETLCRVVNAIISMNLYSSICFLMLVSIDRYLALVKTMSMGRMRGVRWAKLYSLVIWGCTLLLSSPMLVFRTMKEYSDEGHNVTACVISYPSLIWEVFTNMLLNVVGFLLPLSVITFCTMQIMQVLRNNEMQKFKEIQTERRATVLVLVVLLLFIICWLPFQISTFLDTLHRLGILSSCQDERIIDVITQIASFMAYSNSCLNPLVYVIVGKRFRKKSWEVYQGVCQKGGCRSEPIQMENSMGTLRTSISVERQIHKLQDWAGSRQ

| SMILES | change of 18F-NaF uptake vs vehicle ([1]; 8.6 μM in human serum) [%] | maximum average 18F binding (18F-NaF-PET) ([1]; IC90 concentration in human serum, individual samples Fig. 3j, unit not given) | concentration from which difference to IP6 in decrease of serum-ionized calcium became significant [2] [µM] | % Inhibition (Phosphodiesterase PDE4) [%] | inhibition at 10 µM (Adrenergic β1) [%] | % Inhibition (Androgen (Testosterone)) [%] | inhibition at 10 µM (Bradykinin B2) [%] | % Inhibition [3] [%] | inhibition at 10 µM (Chemokine CXCR2 (IL-8RB)) [%] | % Inhibition [4] [%] | inhibition at 10 µM (Histamine H2) [%] | inhibition at 10 µM [5] [%] | % Inhibition (Nicotinic Acetylcholine) [%] | inhibition at 10 µM (Opiate μ (OP3, MOP)) [%] | inhibition at 10 µM [6] [%] | plasma half-life (t1/2) ([7]; healthy volunteers) [min] | plasma half-life (t1/2) ([7]; hemodialyzed patients) [min] |
| --- | --- | --- | --- | --- | --- | --- | --- | --- | --- | --- | --- | --- | --- | --- | --- | --- | --- |
| COCCOCCO[C@@H]1[C@@H](OP(=O)(O)O)[C@H](OCCOCCOC)[C@@H](OP(=O)(O)O)[C@@H](OP(=O)(O)O)[C@H]1OP(=O)(O)O [(OEG2)2-IP4, 4,6-Di-O-(methoxy-diethyleneglycol)-myo-inositol-1,2,3,5-tetrakis(phosphate)] | −38 | 319.764 and 464.582 and 653.422 and 447.312 and 563.189 and 486.153 and 450.235 | ≥ 600 | 12 | 2 | 12 | -17 | -4 | 6 | 5 | -6 | 0 | -5 | 11 | -7 | – | – |
| O=P(O)(O)O[C@H]1[C@H](OP(=O)(O)O)[C@@H](OP(=O)(O)O)[C@H](OP(=O)(O)O)[C@@H](OP(=O)(O)O)[C@H]1OP(=O)(O)O [IP6, myo-Inositol hexakisphosphate] | – | – | – | – | – | – | – | – | – | – | – | – | – | – | – | 54 | 27 |
